Columns and labels:
[1] = molecular target: T1, Protein transport protein Sec61 subunit alpha isoform 1 (Homo sapiens, UniProt P61619); assay: DARTS mass spectrometry of 293T lysate after ATG; format: binding; settings: ATG 300 μM, pronase 1:1000, S61A1_HUMAN
T1 construct: endogenous in cells; host or cells: 293T
Protocol: (§1) 293T cells were digested with M-PER mammalian protein extraction buffer (78501 ThermoFisher) and phosphatase inhibitor (50 mM NaF, 10 mM β-glycerophosphate, 5 mM sodium pyrophosphate, 2 mM Na3VO4); and the protein concentration is determined by Bradford method (500-0006 Bio-rad). ATG was either added or not in the cell lysate. If added, the concentration of ATG was 300 μM. The cells were incubated at room temperature for 1 h. The cells were then lysed by incubating for 20 minutes at room temperature with different concentrations of pronase at 1:1000 (10165921001, Roche). The two groups of lysates are subjected to mass spectrometry and then compared.

[2] = molecular target: T2, Heterogeneous nuclear ribonucleoprotein H2 (Homo sapiens, UniProt P55795); assay: DARTS mass spectrometry of 293T lysate after ATG; format: binding; settings: ATG 300 μM, pronase 1:1000, HNRH2_HUMAN
T2 construct: endogenous in cells; host or cells: 293T
T2 sequence (P55795 1-449): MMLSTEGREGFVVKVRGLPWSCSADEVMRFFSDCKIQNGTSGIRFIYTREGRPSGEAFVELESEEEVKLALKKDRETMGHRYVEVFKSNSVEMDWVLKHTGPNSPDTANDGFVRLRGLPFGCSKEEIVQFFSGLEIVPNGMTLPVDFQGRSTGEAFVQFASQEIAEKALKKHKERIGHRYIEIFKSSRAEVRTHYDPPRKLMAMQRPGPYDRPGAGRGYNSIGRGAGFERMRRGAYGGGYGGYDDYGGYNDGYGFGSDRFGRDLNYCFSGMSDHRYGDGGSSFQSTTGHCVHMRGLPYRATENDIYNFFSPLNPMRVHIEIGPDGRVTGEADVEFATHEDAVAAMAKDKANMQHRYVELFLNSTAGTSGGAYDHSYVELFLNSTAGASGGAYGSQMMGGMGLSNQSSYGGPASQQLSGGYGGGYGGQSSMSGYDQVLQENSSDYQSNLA
Protocol: as §1

[3] = molecular target: T3, Keratin, type I cytoskeletal 17 (Homo sapiens, UniProt Q04695); assay: DARTS mass spectrometry of 293T lysate after ATG; format: binding; settings: ATG 300 μM, pronase 1:1000, K1C17_HUMAN
T3 construct: endogenous in cells; host or cells: 293T
T3 sequence (Q04695 1-432): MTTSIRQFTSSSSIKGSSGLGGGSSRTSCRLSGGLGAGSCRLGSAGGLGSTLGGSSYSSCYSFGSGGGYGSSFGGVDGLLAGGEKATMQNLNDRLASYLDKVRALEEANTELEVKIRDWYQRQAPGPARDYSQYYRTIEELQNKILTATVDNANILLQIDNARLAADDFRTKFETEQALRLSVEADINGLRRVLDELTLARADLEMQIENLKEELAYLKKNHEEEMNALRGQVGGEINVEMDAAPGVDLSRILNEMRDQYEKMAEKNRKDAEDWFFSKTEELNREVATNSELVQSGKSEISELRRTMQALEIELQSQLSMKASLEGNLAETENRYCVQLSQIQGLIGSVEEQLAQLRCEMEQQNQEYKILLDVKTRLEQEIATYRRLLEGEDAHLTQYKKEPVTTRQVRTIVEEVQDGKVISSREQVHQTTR
Protocol: as §1

[4] = molecular target: T4, Keratin, type II cytoskeletal 5 (Homo sapiens, UniProt P13647); assay: DARTS mass spectrometry of 293T lysate after ATG; format: binding; settings: ATG 300 μM, pronase 1:1000, K2C5_HUMAN
T4 construct: endogenous in cells; host or cells: 293T
T4 sequence (P13647 1-590): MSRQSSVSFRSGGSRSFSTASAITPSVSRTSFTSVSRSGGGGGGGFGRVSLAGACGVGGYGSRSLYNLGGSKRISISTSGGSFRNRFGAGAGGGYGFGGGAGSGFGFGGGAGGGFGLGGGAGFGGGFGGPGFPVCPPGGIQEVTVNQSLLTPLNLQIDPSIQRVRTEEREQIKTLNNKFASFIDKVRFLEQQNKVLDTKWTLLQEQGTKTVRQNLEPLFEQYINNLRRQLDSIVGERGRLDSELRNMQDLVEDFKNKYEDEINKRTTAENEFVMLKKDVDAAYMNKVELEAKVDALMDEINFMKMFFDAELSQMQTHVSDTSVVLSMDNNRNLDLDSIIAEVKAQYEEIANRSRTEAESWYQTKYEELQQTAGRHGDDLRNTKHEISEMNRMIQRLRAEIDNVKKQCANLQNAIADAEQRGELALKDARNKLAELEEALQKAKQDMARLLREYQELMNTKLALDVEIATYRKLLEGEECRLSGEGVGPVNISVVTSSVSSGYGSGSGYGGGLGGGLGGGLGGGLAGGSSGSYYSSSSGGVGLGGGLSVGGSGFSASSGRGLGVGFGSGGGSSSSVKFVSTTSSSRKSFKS
Protocol: as §1

[5] = tested on: diabetic kidney disease mice; assay: Proteinuria in STZ-induced diabetic nephropathy mice; format: in vivo; settings: 40 mg/kg oral once daily
Protocol: When the mice were 6 weeks of age, streptozotocin (STZ)-induced diabetic nephropathy models were started by tail vein injection. The specific method is: STZ in accordance with the amount of 50 mg/kg is injected in tail vein. 72 hours after the injection, determine whether the modeling is successful by determining the level of blood glucose and urine. When the blood glucose level is more than 16 mmol/L and urine glucose level is between +++ and ++++, the model was considered successful. After 10 weeks of STZ injection, ATG was orally administered at a dose of 40 mg/kg once daily. The control group was given the same volume of DMSO (dimethyl sulfoxide) orally. Treatment was for 8 weeks. Urine protein levels were measured in each group. The number of the mice in each group is 10 in Table 3. […] ACEI: angiotensin converting enzyme inhibitors; ARBs: angiotensin receptor blockers.

T1 sequence (P61619 whole entry, canonical isoform): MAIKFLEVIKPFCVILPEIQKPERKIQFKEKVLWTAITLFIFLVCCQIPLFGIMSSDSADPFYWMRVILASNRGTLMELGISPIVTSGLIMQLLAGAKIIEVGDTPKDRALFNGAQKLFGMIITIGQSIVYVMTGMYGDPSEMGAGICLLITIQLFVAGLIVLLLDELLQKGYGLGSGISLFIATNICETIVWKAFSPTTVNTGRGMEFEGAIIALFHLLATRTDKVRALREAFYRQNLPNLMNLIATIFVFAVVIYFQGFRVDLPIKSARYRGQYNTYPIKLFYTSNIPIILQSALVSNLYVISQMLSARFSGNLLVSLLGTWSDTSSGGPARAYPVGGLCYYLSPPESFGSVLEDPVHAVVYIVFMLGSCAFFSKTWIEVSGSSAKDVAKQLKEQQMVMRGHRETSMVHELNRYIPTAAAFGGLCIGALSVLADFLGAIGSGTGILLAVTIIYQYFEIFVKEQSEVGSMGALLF

COc1cc(C[C@H]2C(=O)OC[C@@H]2Cc2ccc(OC)c(OC)c2)ccc1O [ATG, Arctigenin]
Ratio (ATG/DMSO) [1]: 4.7
Spectral Count (ATG) [1]: 7
Ratio (ATG/DMSO) [2]: 6.8
Spectral Count (ATG) [2]: 12
Ratio (ATG/DMSO) [3]: 4.7
Spectral Count (ATG) [3]: 7
Ratio (ATG/DMSO) [4]: 4.7
Spectral Count (ATG) [4]: 7
proteinuria (urine protein level) ([5]; Model group - ATG (STZ mice), 0 week): 0.98
proteinuria (urine protein level) ([5]; Model group - ATG (STZ mice), 1 week): 0.95
proteinuria (urine protein level) ([5]; Model group - ATG (STZ mice), 2 week): 1.10
proteinuria (urine protein level) ([5]; Model group - ATG (STZ mice), 3 week): 0.66
proteinuria (urine protein level) ([5]; Model group - ATG (STZ mice), 4 week): 0.66
proteinuria (urine protein level) ([5]; Model group - ATG (STZ mice), 5 week): 0.37
proteinuria (urine protein level) ([5]; Model group - ATG (STZ mice), 6 week): 0.22
proteinuria (urine protein level) ([5]; Model group - ATG (STZ mice), 7 week): 0.18
proteinuria (urine protein level) ([5]; Model group - ATG (STZ mice), 8 week): 0.18
proteinuria (urine protein level) ([5]; Normal group - ATG, 0 week): 0.12
proteinuria (urine protein level) ([5]; Normal group - ATG, 1 week): 0.11
proteinuria (urine protein level) ([5]; Normal group - ATG, 2 week): 0.18
proteinuria (urine protein level) ([5]; Normal group - ATG, 3 week): 0.12
proteinuria (urine protein level) ([5]; Normal group - ATG, 4 week): 0.16
proteinuria (urine protein level) ([5]; Normal group - ATG, 5 week): 0.18
proteinuria (urine protein level) ([5]; Normal group - ATG, 6 week): 0.12
proteinuria (urine protein level) ([5]; Normal group - ATG, 7 week): 0.14
proteinuria (urine protein level) ([5]; Normal group - ATG, 8 week): 0.13
effect on proteinuria ([5]; STZ mice, 8 weeks): significantly reduces proteinuria
effect on proteinuria compared with ACEI/ARBs ([5]; STZ mice, 8 weeks): superior to the ACEI/ARBs

Source: patent US9994533B2, “Method of preparing ATG's analogue, and the application of ATG and it's analogue” (Longhua Hospital Shanghai University of Traditional Chinese …, priority 2016, dated 2018)
